ChEMBL document CHEMBL2086392, “Isomannide derivatives as new class of inhibitors for human kallikrein 7” (Bioorg Med Chem Lett, 2012)

Tests used:
[1] = Solubility of the compound in 10% DMSO; format: physicochemical
Kallikrein-5 [2] = target: T1, Kallikrein-5 (Homo sapiens, UniProt Q9Y337); assay: Inhibition of human recombinant KLK5 expressed in insect cell/baculovirus using Abz-KLYSSKQ-EDDnp as substrate by FRET analysis
T1 sequence (Q9Y337 whole entry): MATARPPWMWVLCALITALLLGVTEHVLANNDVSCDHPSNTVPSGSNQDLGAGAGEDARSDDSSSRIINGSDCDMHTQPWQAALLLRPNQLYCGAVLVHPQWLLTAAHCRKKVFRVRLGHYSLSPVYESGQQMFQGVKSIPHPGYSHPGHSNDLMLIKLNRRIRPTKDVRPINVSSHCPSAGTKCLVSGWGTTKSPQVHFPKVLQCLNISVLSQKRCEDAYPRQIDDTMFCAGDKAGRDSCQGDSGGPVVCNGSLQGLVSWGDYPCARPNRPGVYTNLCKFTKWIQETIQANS

[3] = Solubility of the compound in aqueous buffer; format: physicochemical
Kallikrein-7 [4] = target: T2, Kallikrein-7 (Homo sapiens, UniProt P49862); assay: Competitive inhibition of recombinant human KLK7 expressed in insect cell/baculovirus using Abz-KLYSSKQ-EDDnp as substrate by Dixon plot analysis
Kallikrein-7 [5] = target: T2, Kallikrein-7; assay: Inhibition of human recombinant KLK7 expressed in insect cell/baculovirus using Abz-KLYSSKQ-EDDnp as substrate by FRET analysis
Kallikrein-5 [6] = target: T1, Kallikrein-5; assay: Competitive inhibition of human KLK5 expressed in insect cell/baculovirus using Abz-KLYSSKQ-EDDnp as substrate by Dixon plot analysis

T2 sequence (P49862 whole entry): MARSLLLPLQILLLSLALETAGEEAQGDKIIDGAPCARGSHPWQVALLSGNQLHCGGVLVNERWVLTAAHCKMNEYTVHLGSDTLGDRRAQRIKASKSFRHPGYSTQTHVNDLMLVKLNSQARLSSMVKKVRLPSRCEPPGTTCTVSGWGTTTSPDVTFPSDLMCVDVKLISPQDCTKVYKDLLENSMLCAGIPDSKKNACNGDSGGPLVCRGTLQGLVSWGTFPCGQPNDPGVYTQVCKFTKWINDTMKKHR

| Compound | solubility [1] | IC50 (Kallikrein-5 [2]) [µM] | solubility [3] | Ki (Kallikrein-7 [4]) [µM] | IC50 (Kallikrein-7 [5]) [µM] | Ki (Kallikrein-5 [6]) [µM] |
| --- | --- | --- | --- | --- | --- | --- |
| O=C(N[C@@H]1CO[C@H]2[C@@H]1OC[C@H]2OCc1ccccc1)/C(=C/c1ccc(F)cc1)NC(=O)c1ccccc1 (stereo in doubt) | Insoluble | – | – | – | – | – |
| O=C(N[C@@H]1CO[C@H]2[C@@H]1OC[C@H]2OCc1ccccc1)/C(=C/c1ccc(Cl)cc1)NC(=O)c1ccccc1 (stereo in doubt) | Insoluble | – | – | – | – | – |
| O=C(N[C@@H]1CO[C@H]2[C@@H]1OC[C@H]2OCc1ccccc1)/C(=C/c1ccc(Br)cc1)NC(=O)c1ccccc1 (stereo in doubt) | Insoluble | – | – | – | – | – |
| O=C(N[C@@H]1CO[C@H]2[C@@H]1OC[C@H]2OCc1ccccc1)/C(=C/c1ccc(C(F)(F)F)cc1)NC(=O)c1ccccc1 (stereo in doubt) | Insoluble | – | – | – | – | – |
| COc1ccc(/C=C(\NC(=O)c2ccccc2)C(=O)N[C@@H]2CO[C@H]3[C@@H]2OC[C@H]3OCc2ccccc2)cc1 (stereo in doubt) | Insoluble | – | – | – | – | – |
| O=C(N[C@@H]1CO[C@H]2[C@@H]1OC[C@H]2OCc1ccccc1)/C(=C/c1ccc2c(c1)OCO2)NC(=O)c1ccccc1 (stereo in doubt) | – | > 1000 | soluble | 80.3 | 205 | 357 |
| O=C(N[C@@H]1CO[C@H]2[C@@H]1OC[C@H]2OCc1ccccc1)/C(=C/c1cccnc1)NC(=O)c1ccccc1 (stereo in doubt) | – | 324 | soluble | 75.1 | 196 | 200 |
| CC(=O)N/C(=C\c1cccs1)C(=O)N[C@@H]1CO[C@H]2[C@@H]1OC[C@H]2OCc1ccccc1 (stereo in doubt) | – | 101 | soluble | 77.4 | 161 | 71.9 |

More lines, now with the values ahead:

| solubility [1] | IC50 (Kallikrein-5 [2]) [µM] | solubility [3] | Ki (Kallikrein-7 [4]) [µM] | IC50 (Kallikrein-7 [5]) [µM] | Ki (Kallikrein-5 [6]) [µM] | Compound |
| --- | --- | --- | --- | --- | --- | --- |
| Insoluble | – | – | – | – | – | O=C(N[C@@H]1CO[C@H]2[C@@H]1OC[C@H]2OCc1ccccc1)/C(=C/c1ccccc1)NC(=O)c1ccccc1 |
| Insoluble | – | – | – | – | – | O=C(N[C@@H]1CO[C@H]2[C@@H]1OC[C@H]2OCc1ccccc1)/C(=C/c1cc2ccccc2s1)NC(=O)c1ccccc1 |
| Insoluble | – | – | – | – | – | O=C(N[C@@H]1CO[C@H]2[C@@H]1OC[C@H]2OCc1ccccc1)/C(=C/c1ccc2ccccc2c1)NC(=O)c1ccccc1 |
| Insoluble | – | – | – | – | – | O=C(N[C@@H]1CO[C@H]2[C@@H]1OC[C@H]2OCc1ccccc1)/C(=C/c1cc2ccccc2o1)NC(=O)c1ccccc1 |
| – | 99.2 | soluble | 1.8 | 13.3 | 70.7 | O=C(N[C@@H]1CO[C@H]2[C@@H]1OC[C@H]2OCc1ccccc1)/C(=C/c1cccs1)NC(=O)c1ccccc1 (stereo in doubt) |
| – | 99.1 | soluble | 3 | 16.3 | 70.4 | O=C(N[C@@H]1CO[C@H]2[C@@H]1OC[C@H]2OCc1ccccc1)/C(=C/c1ccco1)NC(=O)c1ccccc1 (stereo in doubt) |
| Insoluble | – | – | – | – | – | O=C(N[C@@H]1CO[C@H]2[C@@H]1OC[C@H]2OCc1ccccc1)/C(=C/c1c[nH]c2ccccc12)NC(=O)c1ccccc1 (stereo in doubt) |
